Results as given in PubChem BioAssay AID248 (DTP/NCI, 2004).
Several values for one entry are separate records, joined by “and”; a condition that tells them apart may be missing. Equal values may be shown once. Toxic doses and inconclusive results are not listed. No stated cut-off is given here; in the data, active means T/C of 150% or more; inactive means T/C below 125%. Square brackets hold non-standard residues; d marks the D form. Peptide text beside a SMILES is read from it. * marks the point of attachment. ξ: configuration not given here. Cbz = O=C(OCc1ccccc1)*; ξI = CCC(C)C(N)C(=O)O

Tested on: L1210 leukemia ip in BDF1 mice, survival T/C
Test: NCI In Vivo Anticancer Drug Screen. Data for tumor model L1210 Leukemia (intraperitoneal) in B6D2F1 (BDF1) mice
Settings: endpoint: mean survival time, higher = longer survival
Method in brief: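 In this screen, tumor-bearing mice given compound are compared to those given vehicle, and their survival values are reported as a treated-to-control quotient.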

[1] = dose: 100.0 mg/kg/injection, schedule: Q04DX002 (ip), vehicle: Klucel (hydroxypropylcellulose) (HPC)
[2] = dose: 200.0 mg/kg/injection, schedule: Q04DX002 (ip), vehicle: Klucel (hydroxypropylcellulose) (HPC)

Measured: T/C

N#CC1(NC(Cc2ccccc2)c2ccccc2)CCCCCCCCCCC1 (stereo unspecified)
inactive: dose: 100.0 mg/kg/injection, schedule: Q04DX002 (ip), vehicle: saline with Tween-80 101 % of control | dose: 200.0 mg/kg/injection, schedule: Q04DX002 (ip), vehicle: saline with Tween-80 94 % of control | dose: 400.0 mg/kg/injection, schedule: Q04DX002 (ip), vehicle: saline with Tween-80 97 % of control

Nc1ncnc2sc(SCc3ccccc3)nc12
inactive: dose: 100.0 mg/kg/injection, schedule: Q04DX003 (ip), vehicle: saline with Tween-80 107 % of control | dose: 200.0 mg/kg/injection, schedule: Q04DX003 (ip), vehicle: saline with Tween-80 102 % of control | dose: 400.0 mg/kg/injection, schedule: Q04DX003 (ip), vehicle: saline with Tween-80 100 % of control

CCCCCCCCC(=O)N(CC)CC
inactive: dose: 100.0 mg/kg/injection, schedule: Q04DX002 (ip), vehicle: saline 111 % of control | dose: 200.0 mg/kg/injection, schedule: Q04DX002 (ip), vehicle: saline 103 % of control | dose: 400.0 mg/kg/injection, schedule: Q04DX002 (ip), vehicle: saline 96 % of control

O/N=C(/C(=N/O)c1ccccc1)c1ccccc1.O/N=C(/C(=N/O)c1ccccc1)c1ccccc1.[Pd]
inactive: dose: 50.0 mg/kg/injection, schedule: Q04DX002 (ip), vehicle: Klucel (hydroxypropylcellulose) (HPC) 106 % of control | [1] 95 % of control | [2] 103 % of control

CCCCCCCCCCCC(=O)Nc1ccc(S(=O)(=O)NNc2ccccc2)cc1[N+](=O)[O-]
inactive: dose: 100.0 mg/kg/injection, schedule: Q01DX009 (ip), vehicle: Klucel (hydroxypropylcellulose) (HPC) 95 % of control | dose: 100.0 mg/kg/injection, schedule: Q04DX003 (ip), vehicle: alcohol 94 % of control | dose: 200.0 mg/kg/injection, schedule: Q04DX003 (ip), vehicle: alcohol 95 % of control | dose: 400.0 mg/kg/injection, schedule: Q04DX003 (ip), vehicle: alcohol 90 % of control

CC(=O)CC(=O)Nc1nc(C)cs1
inactive: dose: 75.0 mg/kg/injection, schedule: Q01DX001 (ip), vehicle: Klucel (hydroxypropylcellulose) (HPC) 100 % of control | dose: 150.0 mg/kg/injection, schedule: Q01DX001 (ip), vehicle: Klucel (hydroxypropylcellulose) (HPC) 100 % of control | dose: 300.0 mg/kg/injection, schedule: Q01DX001 (ip), vehicle: Klucel (hydroxypropylcellulose) (HPC) 95 % of control

O=c1[nH]nnc2nc[nH]c12
inactive: dose: 25.0 mg/kg/injection, schedule: Q01DX001 (ip), vehicle: steriod suspending solution 109 % of control | dose: 46.1 mg/kg/injection, schedule: Q01DX001 (ip), vehicle: steriod suspending solution 100 % of control | dose: 50.0 mg/kg/injection, schedule: Q01DX001 (ip), vehicle: steriod suspending solution 113 % of control | dose: 65.9 mg/kg/injection, schedule: Q01DX001 (ip), vehicle: steriod suspending solution 100 % of control | dose: 94.2 mg/kg/injection, schedule: Q01DX001 (ip), vehicle: steriod suspending solution 102 % of control | dose: 100.0 mg/kg/injection, schedule: Q01DX001 (ip), vehicle: steriod suspending solution 109 % of control | dose: 134.5 mg/kg/injection, schedule: Q01DX001 (ip), vehicle: steriod suspending solution 97 % of control | dose: 192.1 mg/kg/injection, schedule: Q01DX001 (ip), vehicle: steriod suspending solution 101 % of control | dose: 200.0 mg/kg/injection, schedule: Q01DX001 (ip), vehicle: steriod suspending solution 100 % of control | dose: 274.4 mg/kg/injection, schedule: Q01DX001 (ip), vehicle: steriod suspending solution 103 % of control | dose: 392.0 mg/kg/injection, schedule: Q01DX001 (ip), vehicle: steriod suspending solution 108 % of control | dose: 400.0 mg/kg/injection, schedule: Q01DX001 (ip), vehicle: steriod suspending solution 105 % of control | dose: 560.0 mg/kg/injection, schedule: Q01DX001 (ip), vehicle: steriod suspending solution 95 % of control | dose: 800.0 mg/kg/injection, schedule: Q01DX001 (ip), vehicle: steriod suspending solution 96 % of control

CCC(C)C(NC(=O)CNC(=O)CNC(=O)OCc1ccccc1)C(=O)OC (stereo not drawn) (Cbz-Gly-Gly-[ξI]-OMe)
inactive: dose: 100.0 mg/kg/injection, schedule: Q04DX003 (ip), vehicle: Klucel (hydroxypropylcellulose) (HPC) 98 % of control | dose: 200.0 mg/kg/injection, schedule: Q04DX003 (ip), vehicle: Klucel (hydroxypropylcellulose) (HPC) 96 % of control | dose: 400.0 mg/kg/injection, schedule: Q04DX003 (ip), vehicle: Klucel (hydroxypropylcellulose) (HPC) 98 % of control

OCC[S+](CCO)CCO
inactive: dose: 100.0 mg/kg/injection, schedule: Q04DX003 (ip), vehicle: saline 105 % of control | dose: 200.0 mg/kg/injection, schedule: Q04DX003 (ip), vehicle: saline 102 % of control | dose: 400.0 mg/kg/injection, schedule: Q04DX003 (ip), vehicle: saline 104 % of control

CC(C)(CC(=O)O)NC(=O)c1ccccc1
inactive: dose: 100.0 mg/kg/injection, schedule: Q01DX001 (ip), vehicle: other 95 % of control | dose: 200.0 mg/kg/injection, schedule: Q01DX001 (ip), vehicle: other 106 % of control | dose: 400.0 mg/kg/injection, schedule: Q01DX001 (ip), vehicle: other 103 % of control

C[N+](C)(Cc1ccccc1)C1c2ccccc2-c2ccc(Br)cc21 (stereo unspecified)
inactive: dose: 12.5 mg/kg/injection, schedule: Q01DX009 (ip), vehicle: Klucel (hydroxypropylcellulose) (HPC) 97 % of control | dose: 12.5 mg/kg/injection, schedule: Q04DX003 (ip), vehicle: Klucel (hydroxypropylcellulose) (HPC) 94 % of control | dose: 25.0 mg/kg/injection, schedule: Q01DX009 (ip), vehicle: Klucel (hydroxypropylcellulose) (HPC) 92 % of control | dose: 25.0 mg/kg/injection, schedule: Q04DX003 (ip), vehicle: Klucel (hydroxypropylcellulose) (HPC) 94 % of control | dose: 50.0 mg/kg/injection, schedule: Q01DX009 (ip), vehicle: Klucel (hydroxypropylcellulose) (HPC) 96 % of control | dose: 50.0 mg/kg/injection, schedule: Q04DX003 (ip), vehicle: Klucel (hydroxypropylcellulose) (HPC) 88 % of control

O=C(CCCl)c1ccccc1
inactive: [1] 97 % of control | [2] 94 % of control

CN1CCOC1=Nc1cccc2c1CCCC2
inactive: dose: 50.0 mg/kg/injection, schedule: Q01DX009 (ip), vehicle: other 96 % of control | dose: 100.0 mg/kg/injection, schedule: Q01DX009 (ip), vehicle: other 101 % of control | dose: 400.0 mg/kg/injection, schedule: Q01DX009 (ip), vehicle: other 95 % of control

CCCCNC(=O)OCc1cnc(C)n1Cc1ccccc1
inactive: dose: 25.0 mg/kg/injection, schedule: Q01DX009 (ip), vehicle: other 93 % of control and 107 % of control | dose: 100.0 mg/kg/injection, schedule: Q01DX001 (ip), vehicle: carboxymethylcellulose (CMC) 104 % of control | [1] 94 % of control | dose: 100.0 mg/kg/injection, schedule: Q04DX002 (ip), vehicle: other 96 % of control and 105 % of control | dose: 200.0 mg/kg/injection, schedule: Q01DX001 (ip), vehicle: carboxymethylcellulose (CMC) 108 % of control | [2] 98 % of control | dose: 200.0 mg/kg/injection, schedule: Q04DX002 (ip), vehicle: other 93 % of control and 86 % of control | dose: 400.0 mg/kg/injection, schedule: Q04DX002 (ip), vehicle: Klucel (hydroxypropylcellulose) (HPC) 94 % of control

O=[N+]([O-])c1cccc(/C=C\C=C\c2ccccc2)c1
inactive: dose: 50.0 mg/kg/injection, schedule: Q01DX001 (ip), vehicle: saline 100 % of control | dose: 100.0 mg/kg/injection, schedule: Q01DX001 (ip), vehicle: saline 103 % of control | dose: 200.0 mg/kg/injection, schedule: Q01DX001 (ip), vehicle: saline 103 % of control | dose: 400.0 mg/kg/injection, schedule: Q01DX001 (ip), vehicle: saline 94 % of control

O=C(Nc1ccc(C2=NCCN2)c(O)c1)c1cccc(C(=O)Nc2ccc(C3=NCCN3)c(O)c2)c1
inactive: dose: 10.0 mg/kg/injection, schedule: Q01DX Z (ip), vehicle: carboxymethylcellulose (CMC) 101 % of control | dose: 20.0 mg/kg/injection, schedule: Q01DX Z (ip), vehicle: carboxymethylcellulose (CMC) 109 % of control | dose: 40.0 mg/kg/injection, schedule: Q01DX Z (ip), vehicle: carboxymethylcellulose (CMC) 101 % of control | dose: 80.0 mg/kg/injection, schedule: Q01DX Z (ip), vehicle: carboxymethylcellulose (CMC) 101 % of control

Oc1ccc(C2CCCCCC2)cc1
inactive: dose: 12.5 mg/kg/injection, schedule: Q01DX001 (ip), vehicle: carboxymethylcellulose (CMC) 97 % of control | dose: 25.0 mg/kg/injection, schedule: Q01DX001 (ip), vehicle: carboxymethylcellulose (CMC) 103 % of control
